Data reported in patent US7312302B2, “Compositions for the detection of enzyme activity in biological samples and methods of use thereof” (Oncolmmunin, Inc., priority 1997, dated 2007).
Blank lines part the entries; values can stand above or below the compound they belong to. Non-standard residues stand in square brackets, D forms with d. Primed or numbered codes have the meaning given here. No end group written: not given here. *: point of attachment. F1 = 5-carboxytetramethylrhodamine (donor fluorophore); F1(3) = carboxytetramethylrhodamine; Fmoc = O=C(OCC1c2ccccc2-c2ccccc21)*; code B = not defined here; code J = not defined here; Cbz = O=C(OCc1ccccc1)*; F1″ = not defined here; C5 = not defined here

Experiments:
[1] = cited from earlier work; for free energy of activation of disruption of homodimers: doubly labeled NorFes, Packard et al. 1998
[2] = Ground-state (H-type) dimer formation by absorption spectroscopy; assay type: physicochemical; details: homodoubly-labeled peptides
Source text: This was indicated by shift of absorption maxima to shorter wavelengths as well as a shape change of the absorption spectra as compared with the spectra for the enzyme digested doubly-labeled samples. Upon cleavage with elastase, the ground-state dimers were destroyed and the resulting spectra were the same as a solution containing equal concentrations of the respective singly labeled peptides.
For example, NorFes, an undecapeptide which is cleaved by the serine protease elastase, was homodoubly labeled on opposite sides of its cleavage site with six fluorophores in order to identify structural elements of dyes which influence intramolecular H-type dimer formation.

[3] = tested on: Jurkat cells, HL-60 cells, human lymphocyte lines, A1.1 cells, murine primary thymocytes; assay: Cellular uptake of substrates by fluorescence microscopy, flow cytometry, HPLC; assay type: cell-based; details: viable cells
Procedure: The compounds listed in Table 6 were synthesized and assayed for cellular uptake. Cellular internalization of the substrates was tested using Jurkat cells (a human acute T cell leukemic line), HL-60 cells (a human promyelocytic leukemic line), human lymphocyte lines, A1.1 cells (a murine T-cell line), and murine primary thymocytes. Procedures used in determining substrate uptake by viable cells are provided in Example 6 (for the HPLC procedures), in Example 2 (for the fluorescence microscopic analysis), and in Example 3 (for the flow cytometric analysis) a summary of these analyses with respect to cellular uptake of substrates is presented in this example.
The elastase substrate, Fm—K[F1]DAIPNluSIPK[F1]GY (SEQ ID NO:185), (where F1 was carboxytetramethylrhodamine, Fm was Fmoc, K[F1] was F1 covalently attached through the epsilon amino group of lysine (K), and Fm—K is the Fmoc group covalently attached at the alpha amino group of the amino terminal lysine residue) was used with HL-60 cells. Cells were incubated with various concentrations of elastase substrate ranging from 10 nM to 10 μM for 5 minutes to 60 minutes. Then the cells were diluted 5-fold with RPMI 1640 medium containing 5% serum or with phosphate buffered saline. The samples were centrifuged and washed once more with 1 ml of washing solution. After centrifugation and removal of the washing solution, cell pellets were loosened with about 25 ul of medium and these cells were transferred to a glass capillary. Capillary tubes were then placed on a glass microscope slide and examined under a fluorescence microscope using standard rhodamine filters.
For apoptosis-related protease activity determination, 10 μM concentration of the compounds listed in Example 8 (compound structures 2 through 13) were incubated with cells for 30 min. to 3 hours. The cells were then washed similarly twice. Using glass capillary tubes, the washed cells were transferred and examined under a fluorescence microscope.
The concentration of substrates used in flow cytometric analysis was 10 M in RPMI1640 medium containing 4 to 10% fetal calf serum. Cell densities during incubation with the chosen substrates ranged from 50,000 cells per ml to 4,000,000 per ml. Incubation times were from 30 min. to 3 hours at 37° C. and incubation volumes were 50 μL to 2 ml. After incubation with substrate for 30 to 60 min. cell suspensions were diluted 10-fold with ice cold Hank's Buffered Saline Solution (HBSS). This filtered cell suspension was then subjected to flow cytometric analysis using a 488 nm excitation source. Becton Dickenson, Inc.'s flow cytometer, FacSort, was used in the flow cytometric analysis. Typically, 10,000 to 30,000 events per sample were collected.

[4] = target: T1, CPP32 protease (Homo sapiens, UniProt P42574); assay: Cell lysate hydrolysis of DEVD-AFC, competitive substrate inhibition (anti-Fas-stimulated Jurkat cell lysate); assay type: biochemical; details: concentration raised to 25 μM; 50 μM DEVD-AFC, 37° C.
T1 construct: served as a direct measure of the intracellular CPP32 protease activity; endogenous in cells
T1 sequence (P42574 29-277): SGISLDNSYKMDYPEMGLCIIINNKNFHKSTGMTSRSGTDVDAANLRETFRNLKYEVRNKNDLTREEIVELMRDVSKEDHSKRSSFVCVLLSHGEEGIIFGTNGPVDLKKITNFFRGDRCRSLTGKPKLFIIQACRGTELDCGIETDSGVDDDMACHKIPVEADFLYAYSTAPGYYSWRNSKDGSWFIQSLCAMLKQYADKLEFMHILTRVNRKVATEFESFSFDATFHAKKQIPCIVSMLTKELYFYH
Procedure: The level of CPP32 protease activity in the 6 hr ant-Fas-stimulated Jurkat cell lysate was examined using the protease substrate, DEVD-AFC (where AFC is aminofluoromethyl coumarin) 50 μM substrate concentration at 37° C. The buffer used was 50 mM HEPES, pH7.5, 10% w/v sucrose, 0.1% w/v CHAPS.) Fluorescence intensity changes were monitored with an SLM 48000 spectrofluorometer. […] As the concentrations of DEVD, DEVN, and ICE were raised to 25 μM, the rate of DEVD-AFC hydrolysis was decreased.

[5] = tested on: DEVDase activity (caspase 3/7); assay: DEVDase activity in apoptotic thymocyte extract using PhiPhiLux substrate, with protease inhibitors; assay type: biochemical, mouse; details: for inhibition of apoptotic DEVDase activity: apoptotic thymocyte extract, FIG. 5
Procedure: FIG. 5 illustrates the inhibition of DEVDase activity in apoptotic thymocyte extract using PhiPhiLux™ substrate. An extract of mouse thymocytes exposed to 0.1 mM dexamethasone for 6 h was incubated in fluorometer cuvettes at 37° C. with 10 mM PhiPhiLux™ substrate with or without the indicated protease inhibitors. Enzymatic activity was calculated from the rate of increase of fluorescence.
Single cell suspensions of thymocytes were cultured in RPMI 1640 with 10% FCS at a concentration of 10 6 cells/ml. Dexamethasone (final concentration, 0.1 mM) and ZVAD (OMe)FMK (final concentration, 50 mM) were added at the indicated times from stock solutions in DMSO (100 mM for dexamethasone and 200 mM for ZVAD[OMe]FMK). For antiFas stimulation, wells in a 24 well plate were coated with antiFas antibody (20 mg/ml; […] per well) overnight at 378 C. After twice washing the wells with medium containing 10% FCS, 4 3 10 6 thymocytes were added per well. After culture at 378 C in a 5% CO2 atmosphere for the indicated times, cells were centrifuged and resuspended in 75 ml of each substrate (10 mM) in 1.5 ml Eppendorf tubes. The open tubes were placed in the CO2 incubator for an additional 60 min. After washing in saline, cells were analyzed by flow cytometry. Caspase activity measurements in extracts with several known inhibitors and noninhibitors were carried out using fluorometers from Photon Technology International and SLMAMINCO. Cell lysates were prepared using a cell lysate buffer consisting of 50 mM Hepes, pH 7.5, 10% (wt/vol) sucrose, 0.1% (wt/vol) CHAPS, 0.5% (wt/vol) Triton X100, and 10 mM DTT. The substrate (10 mM) was prepared in 50 mM Hepes, pH 7.5, with 10 mM DTT. All measurements were made at 378 C using a thermostated cell holder in a 150 ml quartz cuvette (3 3 3. 45 mm; Starna Cells, Inc.). The temperature of the substrate solution was preequilibrated for 20 min, ensuring temperature equilibration by having a flat base line before cell lysate addition. A 10 ml aliquot from an apoptotic thymocyte lysate was added to 110 ml of substrate solution. The fluorescence intensity was then monitored for 30-60 min. The initial velocity was calculated from the linear portion of the fluorescence increase. Various amounts of inhibitors were added to the cell lysate for 20 min before addition of the cell lysate mixture to the substrate solution.
The caspase substrates used in these studies were based on optimal peptide recognition motifs for various caspases as reported by peptide library studies (2) and are described in Table I. To assess whether cleavage of these substrates in apoptotic thymocytes was due to caspases, we examined extracts from untreated fresh thymocytes, or from thymocytes treated with dexamethasone.

Compound: CCN(CC)c1ccc2c(-c3ccccc3C(=O)O)c3ccc(=[N+](CC)CC)cc-3oc2c1.[Cl-] [Rhodamine B]
concentration above which ground-state dimerization of free dye in solution was observed [1]: higher than 6×10^−4 M

Compound: c1cc2ccc3cccc4ccc(c1)c2c34 [pyrene]
dye-dye (ground-state, H-type) dimer formation / spectral change [2]: No spectral changes were observed

Compound: Fm-K[F1]DBGDEVDGIDGPK[F1]GY (K(F1)D[code B]GDEVDGIDGPK(F1)GY; not fully specified (N-terminus); printed as Fm-K[F1]DBGDEVDGIDGPK[F1]GY; reading uncertain) [Compound 10]
cellular uptake (Table 6) [3]: efficient cellular uptake

Compound: O=C1OC2(c3ccccc31)c1cc(Br)c(O)c(Br)c1Oc1c2cc(Br)c(O)c1Br [Eosin]
concentration above which ground-state dimerization of free dye in solution was observed [1]: higher than 2.8×10^−2 M

Compound: Fm-K[F1]DAIPNluSIPK[F1]GY [Compound 1]
cellular uptake (Table 6) [3]: efficient cellular uptake

rate of DEVD-AFC hydrolysis in presence of substrate [4]: decreased
Compound: K[F1]DBDEVDGIDPK[F1]GY (K(F1″)D[code B]DEVDGIDPK(F1″)GY; reading uncertain; also: printed as K[F1]DBDEVDGIDPK[F1]GY) [Compound 5]
cellular uptake (Table 6) [3]: not optimum for cellular uptake

Compound: K[F1]DAIPNluSIPK[F1]GY [Compound 2]
cellular uptake (Table 6) [3]: not optimum for cellular uptake

Compound: CC(=O)N[C@@H](CC(C)C)C(=O)N[C@@H](CC(C)C)C(=O)N[C@H](C=O)CCCNC(=N)N [leupeptin]
inhibition of apoptotic DEVDase activity [5]: lack of inhibition

rate of DEVD-AFC hydrolysis in presence of substrate [4]: decreased
Compound: K[F1]DYBADGIDPK[F1]GY (K(F1″)DY[code B]ADGIDPK(F1″)GY; reading uncertain; also: printed as K[F1]DYBADGIDPK[F1]GY) [Compound 9]
cellular uptake (Table 6) [3]: not optimum for cellular uptake

inhibition of apoptotic DEVDase activity [5]: complete inhibition
Compound: CC(=O)N[C@@H](CC(=O)O)C(=O)N[C@@H](CCC(=O)O)C(=O)N[C@H](C(=O)N[C@H](C=O)CC(=O)O)C(C)C [DEVDCHO]

Compound: Fm-DAIPNluSIPK[F1]GY [Compound 3]
cellular uptake (Table 6) [3]: does not result in significant cellular uptake

inhibition of apoptotic DEVDase activity [5]: lack of inhibition
Compound: CC(C)C[C@H](NC(=O)[C@H]1O[C@@H]1C(=O)O)C(=O)NCCCCN=C(N)N [Compound E64]

rate of DEVD-AFC hydrolysis in presence of substrate [4]: decreased
Compound: K[F1]DBDEVNGIDPK[F1]GY (K(F1″)D[code B]DEVNGIDPK(F1″)GY; reading uncertain; also: printed as K[F1]DBDEVNGIDPK[F1]GY) [Compound 7]
cellular uptake (Table 6) [3]: not optimum for cellular uptake

Compound: Fm-K[F1]DBDEVNGIDPK[F1]GY (Fmoc-K(F1″)D[code B]DEVNGIDPK(F1″)GY; reading uncertain; also: printed as Fm-K[F1]DBDEVNGIDPK[F1]GY) [Compound 6]
cellular uptake (Table 6) [3]: efficient cellular uptake

cleavage by apoptotic thymocyte extracts relative to fresh thymocyte extracts ([5]; on a cell basis): 25 fold
Compound: KDPC5GDEVDGIDGC5PKGY (KDP[C5]GDEVDGIDG[C5]PKGY; reading uncertain; also: printed as KDPC5GDEVDGIDGC5PKGY) [PhiPhiLux, cell-permeable fluorogenic caspase 3/7 substrate from OncoImmunin, Inc]

Compound: diethylrhodamine
free energy of activation of disruption of homodimers [1]: 2.4 kcal/mol

Compound: F1-PDEVDGIDPK[F1]GY ({F1(3)}-PDEVDGIDPK(F1(3))GY)
dye-dye (ground-state, H-type) dimer formation / spectral change [2]: did not allow the formation of productive H-type dimers

Compound: Fm-K[F1]DBDEVDGIDPK[F1]GY (Fmoc-K(F1″)D[code B]DEVDGIDPK(F1″)GY; reading uncertain; also: printed as Fm-K[F1]DBDEVDGIDPK[F1]GY) [Compound 4]
cellular uptake (Table 6) [3]: efficient cellular uptake

Compound: NC(=O)CI [iodoacetamide]
inhibition of apoptotic DEVDase activity [5]: inhibition

Compound: Fm-K[F1]DBEVDGIDPK[F1]GY (Fmoc-K(F1″)D[code B]EVDGIDPK(F1″)GY; reading uncertain; also: printed as Fm-K[F1]DBEVDGIDPK[F1]GY) [Compound 8]
cellular uptake (Table 6) [3]: efficient cellular uptake

Compound: CN(C)c1ccc2c(-c3ccccc3C(=O)[O-])c3ccc(N(C)C)cc3[o+]c2c1 [tetramethylrhodamine]
free energy of activation of disruption of homodimers [1]: at least 1.7 kcal/mole

Compound: Z-K[F1]DBJGDEVDGIDGJPK[F1]GY (Cbz-K(F1″)D[code B][code J]GDEVDGIDG[code J]PK(F1″)GY; reading uncertain; also: printed as Z-K[F1]DBJGDEVDGIDGJPK[F1]GY) [Compound 12]
cellular uptake (Table 6) [3]: efficient cellular uptake

Compound: F1-DEVDGIDPK[F1]GY ({F1(3)}-DEVDGIDPK(F1(3))GY)
dye-dye (ground-state, H-type) dimer formation / spectral change [2]: did not allow the formation of productive H-type dimers
